In patent US12156871B2, “Substituted azacycles as muscarinic M1 receptor positive allosteric modulators” (SUVEN LIFE SCIENCES LIMITED, priority 2017, dated 2024):

Legend:
[1] = Protein binding assay (HT dialysis), rat liver microsomes; format: in vitro ADME; settings: pH 7.4, Rat liver microsomes 0.5 mg/mL, Mean ± SEM, n = 3, read-out: Fu Microsomes
Procedure: (§1) Unbound fractions of test compounds in plasma, brain homogenate and liver microsomes were determined using high-throughput dialysis (HT dialysis). Briefly, dialysis membranes were soaked in deionized water for 20 minutes and then in deionized water with 30% ethanol for 15 minutes and finally in phosphate buffer until use. Membranes were rinsed in phosphate buffer before assembling. The membranes were layered between teflon bars of dialysis assembly. Stock solutions of test compound/comparative compound were prepared at 10 mM in DMSO, diluted to 1 mM in acetonitrile and further diluted to 100 μM in mixture of water and acetonitrile (1:1 v/v). Human plasma (pool of 3) was prepared from human blood (3 donors) by centrifuging at 4000 rpm for 10 min at 4° C. Rat and dog blood were obtained on the day of the study and centrifuged to obtain plasma. Rat brains were isolated, cleaned and homogenized with 2 volumes of buffer (3 fold dilution). Liver microsomes were prepared at 0.5 mg/mL in phosphate buffer (100 mM, pH 7.4). The dialysate chambers were loaded with 150 μL of 100 mM phosphate buffer (pH 7.4) in triplicates. The matrix chambers were loaded with 150 μL of the plasma or brain homogenate or microsomal suspension spiked with test compound/comparative compound at a final concentration of 1 μM. 50 μL of the sample was removed from both the chambers at 0 h. The plate was sealed and incubated at 37° C. for 6 h at 100 rpm. After 6 h, 50 μL of the sample was removed from both the chambers. Equal volumes of buffer or human plasma/microsomal suspension were added to the plasma/microsomal and buffer samples respectively to create identical sample matrices for analysis. The samples were precipitated with 150 μL of acetonitrile containing fluoxetine as an internal standard. All the samples were centrifuged at 10000 rpm for 10 minutes at 4° C.

[2] = Protein binding assay (HT dialysis), human liver microsomes; format: in vitro ADME; settings: pH 7.4, Human liver microsomes 0.5 mg/mL, Mean ± SEM, n = 3, read-out: Fu Microsomes (converted)
Procedure: as §1

[3] = Rodent pharmacokinetic study; format: in vivo, Male Wistar rats; settings: rat; for AUC(0-t) / clearance / half-life / Cmax: male, Wistar, plasma; for F: oral 3 mg/kg vs i.v. 1 mg/kg
Procedure: Male Wistar rats (260±50 grams) were used as experimental animals. Animals were housed individually in polypropylene cage. Two days prior to study, male Wistar rats were anesthetized with isoflurane for surgical placement of jugular vein catheter. Rats were randomly divided for oral (3 mg/kg) and intravenous (i.v) (1 mg/kg) dosing (n=3/group) and fasted overnight before oral dosing (p.o.). However, rats allocated to intravenous (i.v.) dosing food and water was provided ad libitum.
At pre-determined point, blood was collected through jugular vein and replenished with an equivalent volume of normal saline. Collected blood was transferred into a labeled eppendorf tube containing 10 μL of heparin as an anticoagulant. Typically blood samples were collected at following time points: 0.08, 0.25, 0.5, 1, 2, 4, 6, 8, and 24 h post dose. Blood was centrifuged at 4000 rpm for 10 minutes. Plasma was separated and stored frozen at −80° C. until analysis. The concentrations of the test compounds were quantified in plasma by qualified LC-MS/MS method using suitable extraction technique. The test compounds were quantified in the calibration range around 1-1000 ng/mL in plasma. Study samples were analyzed using calibration samples in the batch and quality control samples spread across the batch.
Pharmacokinetic parameters Cmax, AUCt, T1/2, clearance and bioavailability (F) were calculated by non-compartmental model using standard non-compartmental model by using Phoenix WinNonlin 6.0.2 or 6.0.3 version Software package and the results are tabulated below.

[4] = target: T1, human Muscarinic M1 receptor (Homo sapiens, UniProt P11229); test: Allosteric potency EC50 for muscarinic M1 receptor, CHO pCRE-Luc reporter cell assay; format: cell-based; settings: in presence of EC20 of acetylcholine; CHO cells, luciferase reporter, 4 h
T1 sequence (P11229 1-460): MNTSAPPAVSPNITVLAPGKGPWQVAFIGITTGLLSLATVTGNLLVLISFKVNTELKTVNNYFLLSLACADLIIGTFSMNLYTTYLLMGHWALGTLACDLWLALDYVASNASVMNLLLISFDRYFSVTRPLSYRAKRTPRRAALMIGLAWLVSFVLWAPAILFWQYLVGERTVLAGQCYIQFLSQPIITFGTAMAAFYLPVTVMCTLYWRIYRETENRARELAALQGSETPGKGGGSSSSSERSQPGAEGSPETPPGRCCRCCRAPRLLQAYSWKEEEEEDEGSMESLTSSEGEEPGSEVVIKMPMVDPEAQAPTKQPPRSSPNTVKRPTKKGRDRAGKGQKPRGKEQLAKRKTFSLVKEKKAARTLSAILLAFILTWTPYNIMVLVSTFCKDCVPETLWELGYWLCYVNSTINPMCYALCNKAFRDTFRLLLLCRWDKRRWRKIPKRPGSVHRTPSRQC
Procedure: A stable CHO cell line expressing recombinant human Muscarinic M1 receptor and pCRE-Luc reporter system was used for cell-based assay. The assay offers a non-radioactive based approach to determine binding of a compound to GPCRs. In this specific assay, the level of intracellular cyclic AMP which is modulated by activation or inhibition of the receptor is measured. The recombinant cells harbor luciferase reporter gene under the control of cAMP response element.
The above cells were grown in 96 well clear bottom white plates in Hams F12 medium containing 10% fetal bovine serum (FBS). Prior to the addition of compounds or standard agonist, cells were serum starved overnight. Increasing concentrations of test compounds were added along with EC20 of acetylcholine in OptiMEM medium to the cells. The incubation was continued at 37° C. in CO2 incubator for 4 h. Medium was removed and cells were washed with phosphate buffered saline. The cells were lysed and luciferase activity was measured in a Luminometer. Luminescence units were plotted against the compound concentrations using Graphpad software. EC50 values of the compounds were defined as the concentration required in stimulating the luciferase activity by 50% in presence of EC20 of acetylcholine.

[5] = Protein binding assay (HT dialysis), dog liver microsomes; format: in vitro ADME; settings: pH 7.4, Dog liver microsomes 0.5 mg/mL, Mean ± SEM, n = 3, read-out: Fu Microsomes (converted)
Procedure: as §1

[6] = Protein binding assay (HT dialysis), rat plasma; format: in vitro ADME; settings: pH 7.4, Mean ± SEM, n = 3, read-out: Fu Plasma
Procedure: as §1

| SMILES | fraction unbound at 6 h, 1 μM [1] | fraction unbound at 6 h, 1 μM [2] | AUC(0-t) ([3]; iv, i.v. 1 mg/kg) [ng·h/mL] | clearance ([3]; iv, i.v. 1 mg/kg) [mL/min/kg] | half-life ([3]; iv, i.v. 1 mg/kg) [min] | AUC(0-t) ([3]; oral 3 mg/kg) [ng·h/mL] | Cmax ([3]; oral 3 mg/kg) [ng/mL] | half-life ([3]; oral 3 mg/kg) [min] | F [3] [%] | EC50 [4] [nM] | fraction unbound at 6 h, 1 μM [5] | fraction unbound at 6 h, 1 μM [6] |
| --- | --- | --- | --- | --- | --- | --- | --- | --- | --- | --- | --- | --- |
| COc1ccc(Cc2cc3c(nc2C)CN([C@H]2CCCC[C@@H]2O)C3=O)cc1 [Example 6, 6-(1S,2S-2-Hydroxycyclohexyl)-2-methyl-3-(4-methoxybenzyl)-6,7-dihydropyrrolo[3,4-b]pyridin-5-one] | 0.798 ± 0.12 | 0.938 | 1750 ± 312 | 9.3 ± 2 | 114 ± 30 | 3520 | 1470 ± 26.5 | 78 ± 6 | 67 ± 5 | 954 | 0.906 | 0.113 ± 0.003 |
| COc1cccc(Cc2cc3c(nc2C)CN([C@H]2CCCC[C@@H]2O)C3=O)c1 [Example 38, 6-(1S,2S-2-Hydroxycyclohexyl)-2-methyl-3-(3-methoxybenzyl)-6,7-dihydropyrrolo[3,4-b]pyridin-5-one] | 0.826 ± 0.03 | 0.87 | 662 ± 33 | 25.1 ± 1.2 | 30 | 1010 | 861 ± 168 | 36 ± 6 | 51 ± 17 | 2280 | 0.843 | 0.103 ± 0.003 |
